row,SMILES,melting point [°C]
1,"Cc1nc(N2CCCCC2)c2[nH]c(C)cc2n1.Cl (hydrate or solvate) [Example 104, 2,6-Dimethyl-4-piperidylpyrrolo[3,2-d]pyrimidine Hydrochloride Hydrate]",244 to 245.5
2,"Cc1nc(N2CCCCC2)c2[nH]c(-c3cc(C)oc3C)cc2n1.Cl (hydrate or solvate) [Example 108, 2,5-Dimethyl-3-(2-methyl-4-piperidylpyrrolo[4,5-d]pyrimidin-6-yl)furan Hydrochloride Monohydrate]",238 to 240
3,"Cc1nc(N2CCCCC2)c2[nH]c(-c3ccc4c(c3)OCO4)cc2n1.Cl (hydrate or solvate) [Example 114, 5-[2-Methyl-4-piperidylpyrrolo[4,5-d]pyrimidin-6-yl]-2H-benzo[d]1,3-dioxolane Hydrochloride Monohydrate]",> 280
4,"Cc1nc(N2CCCCC2)c2[nH]c(-c3cc(F)c(F)c(F)c3)cc2n1.Cl (hydrate or solvate) [Example 116, 2-Methyl-4-piperidyl-6-(3,4,5-trifluorophenyl)pyrrolo[3,2-d]pyrimidine Hydrochloride Hydrate]",> 280
5,"Cc1nc(N2CCCCC2)c2[nH]c(-c3ccc(Cl)c(Cl)c3)cc2n1.Cl (hydrate or solvate) [Example 118, 6-(3,4-Dichlorophenyl)-2-methyl-4-piperidylpyrrolo[3,2-d]pyrimidine Hydrochloride Monohydrate]",265 to 268
6,"COc1ccc(-c2cc3nc(C)nc(N4CCCCC4)c3[nH]2)cc1F.Cl (hydrate or solvate) [Example 119, 2-Fluoro-1-methoxy-4-[2-methyl-4-piperidylpyrrolo[4,5-d]pyrimidin-6-yl]benzene Hydrochloride Hydrate]",262 to 264
7,"Cc1nc(N2CCCCC2)c2[nH]c(-c3ccc(F)c(F)c3)cc2n1.Cl (hydrate or solvate) [Example 121, 6-(3,4-Difluorophenyl)-2-methyl-4-piperidylpyrrolo[3,2-d]pyrimidine Hydrochloride Hydrate]",243 to 245
8,"Cc1nc(N2CCCCC2)c2[nH]c(-c3ccc(SC(F)(F)F)cc3)cc2n1.Cl (hydrate or solvate) [Example 123, Trifluoro[4-(2-methyl-4-piperidylpyrrolo[4,5-d]pyrimidin-6-yl)phenylthio]methane Hydrochloride Monohydrate]",270 to 272
9,"Cc1nc(N2CCCCC2)c2[nH]c(-c3ccc4c(c3)OCCO4)cc2n1.Cl (hydrate or solvate) [Example 125, 6-(2-Methyl-4-piperidylpyrrolo[4,5-d]pyrimidin-6-yl)-2H,3H-benzo[e]1,4-dioxane Hydrochloride Monohydrate]",> 280
10,"COc1ccc(-c2cc3nc(C)nc(N4CCCCC4)c3[nH]2)cc1OC.Cl (hydrate or solvate) [Example 126, 1,2-Dimethoxy-4-(2-methyl-4-piperidylpyrrolo[4,5-d]pyrimidin-6-yl)benzene Hydrochloride Hydrate]",268 to 270
11,"Cc1nc(N2CCCCC2)c2[nH]c(-c3ccc4c(c3)Cc3ccccc3-4)cc2n1.Cl (hydrate or solvate) [Example 127, 6-Fluoren-2-yl-2-methyl-4-piperidylpyrrolo[3,2-d]pyrimidine Hydrochloride Hydrate]",> 280
12,"Cc1nc(N2CCCCC2)c2[nH]c(-c3ccc4c(c3)CCC4)cc2n1.Cl (hydrate or solvate) [Example 130, 6-Indan-5-yl-2-methyl-4-piperidylpyrrolo[3,2-d]pyrimidine Hydrochloride Monohydrate]",164 to 167
13,"Cc1nc(N2CCCCC2)c2[nH]c(-c3ccc4c(c3)CCO4)cc2n1.Cl (hydrate or solvate) [Example 131, 5-[2-Methyl-4-piperidylpyrrolo[4,5-d]pyrimidin-6-yl]-2,3-dihydrobenzo[b]furan Hydrochloride Hydrate]",170 to 172
14,"Cc1nc(N2CCCCC2)c2[nH]c(-c3ccc(F)cc3)c(C)c2n1.Cl (hydrate or solvate) [Example 134, 6-(4-Fluorophenyl)-2,7-dimethyl-4-piperidylpyrrolo[3,2-d]pyrimidine Hydrochloride Hydrate]",> 280
15,"Cc1nc(N2CCCCC2)c2[nH]c(-c3ccc(O)cc3)c(C)c2n1.Cl (hydrate or solvate) [Example 137, 4-[2,7-Dimethyl-4-piperidylpyrrolo[4,5-d]pyrimidin-6-yl]phenol Hydrochloride Hydrate]",> 280
16,Cc1nc(NCc2ccc(C)o2)c2[nH]c(-c3ccccc3)cc2n1 [Example 17],125 to 127.5
17,"Cc1nc(NCc2ccccc2)c2[nH]c(-c3ccccc3)cc2n1 [Example 29, (2-Methyl-6-phenylpyrrolo[2,3-e]pyrimidin-4-yl)benyzlamine]",275 to 276.5
18,Cc1nc(N2CCCCC2)c2[nH]c(-c3cc(C(F)(F)F)cc(C(F)(F)F)c3)cc2n1.Cl [Example 122],> 280
19,"Cc1c(-c2ccccc2)n(C)c2c(N3CCCCC3)ncnc12 [Example 155, 5,7-Dimethyl-6-phenyl-4-piperidylpyrrolo[3,2-d]pyrimidine]",123 to 125

# Now from value to compound:
row,melting point [°C],SMILES
1,183 to 185.5,"Cc1nc(N2CCCCC2)c2[nH]c(-c3ccn(S(=O)(=O)c4ccccc4)c3)cc2n1.Cl (hydrate or solvate) [Example 101, 3-(2-Methyl-4-piperidylpyrrolo[4,5-d]pyrimidin-6-yl)-1-(phenylsulfonyl)pyrrole Hydrochloride Hydrate]"
2,287 to 289,"Cc1nc(N2CCCCC2)c2[nH]c(-c3ccccc3F)cc2n1.Cl (hydrate or solvate) [Example 102, 6-(2-Fluorophenyl)-2-methyl-4-piperidylpyrrolo[3,2-d]pyrimidine Hydrochloride Monohydrate]"
3,> 285,"Cc1nc(N2CCCCC2)c2[nH]c(-c3cccc(F)c3)cc2n1.Cl (hydrate or solvate) [Example 103, 6-(3-Fluorophenyl)-2-methyl-4-piperidylpyrrolo[3,2-d]pyrimidine Hydrochloride Monohydrate]"
4,241 to 243,"Cc1nc(N2CCCCC2)c2[nH]c(-c3cccc(C(F)(F)F)c3)cc2n1.Cl (hydrate or solvate) [Example 107, 2-Methyl-4-piperidyl-6-[3-(trifluoromethyl)phenyl]pyrrolo[3,2-d]pyrimidine Hydrochloride Monohydrate]"
5,278 to 280,"Cc1nc(N2CCCCC2)c2[nH]c(-c3ccc(C(F)(F)F)cc3)cc2n1.Cl (hydrate or solvate) [Example 111, 2-Methyl-4-piperidyl-6-[4-(trifluoromethyl)phenyl]pyrrolo[3,2-d]pyrimidine Hydrochloride Hydrate]"
6,198 to 201,"Cc1nc(N2CCCCC2)c2[nH]c(-c3ccc(C)c(C)c3)cc2n1.Cl (hydrate or solvate) [Example 124, 6-(3,4-Dimethylphenyl)-2-methyl-4-piperidylpyrrolo[3,2-d]pyrimidine Hydrochloride Hydrate]"
7,279 to 281,"Cc1nc(N2CCCCC2)c2[nH]c(-c3ccc(S(C)(=O)=O)cc3)cc2n1.Cl (hydrate or solvate) [Example 142, 1-[2-Methyl-4-piperidylpyrrolo[4,5-d]pyrimidin-6-yl]-4-(methylsulfonyl)benzene Hydrochloride Monohydrate]"
8,> 280,"Cc1nc(N2CCCCC2)c2[nH]c(-c3ccc4ccccc4c3)cc2n1.Cl (hydrate or solvate) [Example 160, 2-Methyl-6-(2-naphthyl)-4-piperidylpyrrolo[3,2-d]pyrimidine Hydrochloride Hydrate]"
9,236 to 238,"Cc1nc(N2CCCCC2)c2[nH]c(CCc3ccccc3)cc2n1.Cl (hydrate or solvate) [Example 168, 2-Methyl-6-(2-phenylethyl)-4-piperidylpyrrolo[3,2-d]pyrimidine Hydrochloride Hydrate]"
10,209 to 210,"Cc1nc(N2CCCCCC2)c2[nH]c(-c3ccccc3)cc2n1 [Example 8, 4-Homopiperidyl-2-methyl-6-phenylpyrrolo[3,2-d]pyrimidine]"
11,269.5 to 272,"CC(C)c1nc(N2CCCCC2)c2[nH]c(-c3ccccc3)cc2n1 [Example 19d, 2-Isopropyl-6-phenyl-4-piperidylpyrrolo[3,2-d]pyrimidine]"
12,236,"Cc1nc(N2CCNCC2)c2[nH]c(-c3ccccc3)cc2n1 [Example 26, 2-methyl-6-phenyl-4-piperazinylpyrrolo[3,2-d]pyrimidine]"
13,131 to 132,"Cc1nc(N2CCCCC2)c2c(cc(-c3ccccc3)n2C)n1 [Example 36, 2,5-Dimethyl-6-phenyl-4-piperidylpyrrolo[3,2-d]pyrimidine]"
14,259 to 261.5,"c1ccc(-c2nc(N3CCCCC3)c3[nH]c(-c4ccccc4)cc3n2)cc1 [Example 45d, 2,6-Diphenyl-4-piperidylpyrrolo[3,2-d]pyrimidine]"
15,188 to 190,"CC(=O)c1c(-c2ccccc2)[nH]c2c(N3CCCCC3)nc(C)nc12 [Example 49, 7-Acetyl-2-methyl-6-phenyl-4-piperidylpyrrolo[3,2-d]pyrimidine]"
16,169 to 170,"Cc1nc(N2CCCCC2)c2[nH]c(-c3ccccc3)cc2[n+]1[O-] [Example 184, 2-Methyl-6-phenyl-4-piperidylpyrrolo[3,2-d]pyrimidin-1-ol]"

# Reference: patent US6583154B1, “Compounds and methods which modulate feeding behavior and related diseases” (Amgen Inc., priority 1998, dated 2003)
